Like-named read-outs stand apart in the source and are kept apart here.
Key:
Format in all cases: binding
HCoV-OC43 gRNA and sgRNA = conditions: for target (unweighted spectral count, OC43 Probe II) / background (unweighted spectral count, no-probe control): type n_48_v, 48 hpi; for target (unweighted spectral count, OC43 Probe II): OC43 Probe II capture on infected cells; for background (unweighted spectral count, no-probe control): no-probe control on infected cells; for target (unweighted spectral count, OC43 Probe II capture) / target (unweighted spectral count): tested against no-probe control; for target (unweighted spectral count, OC43 Probe II capture): FDR<10%; for target (unweighted spectral count): OC43 Probe II, infected cells; for target (spectral count) / background (spectral count): type s_36_m, Probe II; for target (spectral count): HCoV-OC43-infected HCT-8 cells; for background (spectral count): uninfected-probe control
gRNA of HCoV-OC43 = conditions: for target (spectral count, OC43 Probe I RNP capture) / background (spectral count, no-probe control): type n_48_v: 48 hours post-infection; for target (spectral count, OC43 Probe I RNP capture): infected cells, unweighted spectral count; for background (spectral count, no-probe control): no-probe control on infected cells; for target (spectral count) / background (spectral count): type g_36_m, 36 hpi, Probe I; for target (spectral count): HCoV-OC43-infected HCT-8 cells; for background (spectral count): uninfected-probe control
[1] = test system: SARS-CoV-2 gRNA and sgRNAs; conditions: for target (unweighted spectral count in RNP capture): Probe II capture, LC-MS/MS LFQ; for background (unweighted spectral count in control): no-probe control pull-down, used as background for Probe II

ABCF1
target (unweighted spectral count, OC43 Probe II) (HCoV-OC43 gRNA and sgRNA): 5
background (unweighted spectral count, no-probe control) (HCoV-OC43 gRNA and sgRNA): 1
target (spectral count, OC43 Probe I RNP capture) (gRNA of HCoV-OC43): 7
background (spectral count, no-probe control) (gRNA of HCoV-OC43): 1

AKAP8
target (unweighted spectral count, OC43 Probe II capture) (HCoV-OC43 gRNA and sgRNA; 36 hpi, type n_36_v): 4

ATP13A1
target (unweighted spectral count, OC43 Probe II capture) (HCoV-OC43 gRNA and sgRNA; 36 hpi, type n_36_v): 6

C19orf66
target (unweighted spectral count, OC43 Probe II capture) (HCoV-OC43 gRNA and sgRNA; 36 hpi, type n_36_v): 4
target (unweighted spectral count, OC43 Probe II) (HCoV-OC43 gRNA and sgRNA): 6
background (unweighted spectral count, no-probe control) (HCoV-OC43 gRNA and sgRNA): 1

CCAR2: host protein, UniProt Q8N163
target (unweighted spectral count, OC43 Probe II capture) (HCoV-OC43 gRNA and sgRNA; 36 hpi, type n_36_v): 12
target (unweighted spectral count) (HCoV-OC43 gRNA and sgRNA; 24 hpi (type n_24_v)): 8
target (unweighted spectral count, OC43 Probe II) (HCoV-OC43 gRNA and sgRNA): 20
background (unweighted spectral count, no-probe control) (HCoV-OC43 gRNA and sgRNA): 1
target (spectral count) (HCoV-OC43 gRNA and sgRNA; 36 hpi): 12
background (spectral count) (HCoV-OC43 gRNA and sgRNA; 36 hpi): 1
target (spectral count) (gRNA of HCoV-OC43): 20
background (spectral count) (gRNA of HCoV-OC43): 1
target (spectral count, OC43 Probe I RNP capture) (gRNA of HCoV-OC43): 23
background (spectral count, no-probe control) (gRNA of HCoV-OC43): 1

DDX39B
target (unweighted spectral count, OC43 Probe II) (HCoV-OC43 gRNA and sgRNA): 6
background (unweighted spectral count, no-probe control) (HCoV-OC43 gRNA and sgRNA): 1
target (spectral count, OC43 Probe I RNP capture) (gRNA of HCoV-OC43): 5
background (spectral count, no-probe control) (gRNA of HCoV-OC43): 1

DDX54
target (unweighted spectral count, OC43 Probe II capture) (HCoV-OC43 gRNA and sgRNA; 36 hpi, type n_36_v): 5

EEF1G
target (unweighted spectral count, OC43 Probe II capture) (HCoV-OC43 gRNA and sgRNA; 36 hpi, type n_36_v): 4

EIF4A1
target (unweighted spectral count) (HCoV-OC43 gRNA and sgRNA; 24 hpi (type n_24_v)): 5
target (unweighted spectral count in RNP capture) ([1]; […]): 8
background (unweighted spectral count in control) [1]: 1

EIF4G1: host protein, UniProt Q04637
target (unweighted spectral count, OC43 Probe II capture) (HCoV-OC43 gRNA and sgRNA; 24 hpi, type n_24_v): 4
target (unweighted spectral count, OC43 Probe II capture) (HCoV-OC43 gRNA and sgRNA; 36 hpi, type n_36_v): 7
target (spectral count) (HCoV-OC43 gRNA and sgRNA; 36 hpi): 7
background (spectral count) (HCoV-OC43 gRNA and sgRNA; 36 hpi): 1
target (unweighted spectral count in RNP capture) ([1]; […]): 18
background (unweighted spectral count in control) [1]: 1

ENO1
target (unweighted spectral count in RNP capture) ([1]; […]): 22
background (unweighted spectral count in control) [1]: 4

ESYT1
target (unweighted spectral count, OC43 Probe II capture) (HCoV-OC43 gRNA and sgRNA; 36 hpi, type n_36_v): 4

FAM125A
target (unweighted spectral count in RNP capture) ([1]; […]): 97

FXR2
target (unweighted spectral count, OC43 Probe II capture) (HCoV-OC43 gRNA and sgRNA; 36 hpi, type n_36_v): 5
target (unweighted spectral count, OC43 Probe II) (HCoV-OC43 gRNA and sgRNA): 7
background (unweighted spectral count, no-probe control) (HCoV-OC43 gRNA and sgRNA): 1
target (spectral count, OC43 Probe I RNP capture) (gRNA of HCoV-OC43): 7
background (spectral count, no-probe control) (gRNA of HCoV-OC43): 1
target (unweighted spectral count in RNP capture) ([1]; […]): 23
background (unweighted spectral count in control) [1]: 1

GAPDH
target (unweighted spectral count in RNP capture) ([1]; […]): 12
background (unweighted spectral count in control) [1]: 1

GEMIN5
target (unweighted spectral count of the protein in the RNP capture experiment) ([1]; […], LC-MS/MS label-free quantification, probe pool not given): 5
back-ground (unweighted spectral count of the protein in the control experiment) ([1]; protein background of the control (e.g. no-probe) experiment, […]): 1

H2AFY
target (unweighted spectral count) (HCoV-OC43 gRNA and sgRNA; 12 hpi (type n_12_v)): 4

HELZ2: host protein, UniProt Q9BYK8
target (unweighted spectral count, OC43 Probe II capture) (HCoV-OC43 gRNA and sgRNA; 36 hpi, type n_36_v): 16
target (unweighted spectral count, OC43 Probe II) (HCoV-OC43 gRNA and sgRNA): 20
background (unweighted spectral count, no-probe control) (HCoV-OC43 gRNA and sgRNA): 1
target (spectral count) (HCoV-OC43 gRNA and sgRNA; 36 hpi): 16
background (spectral count) (HCoV-OC43 gRNA and sgRNA; 36 hpi): 1
target (spectral count) (gRNA of HCoV-OC43): 11
background (spectral count) (gRNA of HCoV-OC43): 1
target (spectral count, OC43 Probe I RNP capture) (gRNA of HCoV-OC43): 8
background (spectral count, no-probe control) (gRNA of HCoV-OC43): 1

HIST1H1C
target (unweighted spectral count) (HCoV-OC43 gRNA and sgRNA; 12 hpi (type n_12_v)): 7

HSPA1B
target (unweighted spectral count, OC43 Probe II capture) (HCoV-OC43 gRNA and sgRNA; 36 hpi, type n_36_v): 4

KHDR ? S1
target (spectral count, OC43 Probe I RNP capture) (gRNA of HCoV-OC43): 18
background (spectral count, no-probe control) (gRNA of HCoV-OC43): 1

KHDRB51
target (unweighted spectral count in RNP capture) ([1]; […]): 13
background (unweighted spectral count in control) [1]: 1

KHDRBS1: host protein, UniProt Q07666
target (unweighted spectral count, OC43 Probe II capture) (HCoV-OC43 gRNA and sgRNA; 36 hpi, type n_36_v): 12
target (unweighted spectral count) (HCoV-OC43 gRNA and sgRNA; 24 hpi (type n_24_v)): 10
target (unweighted spectral count, OC43 Probe II) (HCoV-OC43 gRNA and sgRNA): 14
background (unweighted spectral count, no-probe control) (HCoV-OC43 gRNA and sgRNA): 1
target (spectral count) (HCoV-OC43 gRNA and sgRNA; 36 hpi): 12
background (spectral count) (HCoV-OC43 gRNA and sgRNA; 36 hpi): 2
target (spectral count) (gRNA of HCoV-OC43): 13
background (spectral count) (gRNA of HCoV-OC43): 2

KRT16
target (unweighted spectral count) (HCoV-OC43 gRNA and sgRNA; 24 hpi (type n_24_v)): 22
